Source: US12721848B2, “Pharmaceutical composition for preventing or treating graft versus host disease comprising thiamine derivatives” (Kyungpook National University Industry-Academic Cooperation …, priority 2020, dated 2026)

Experiments:
[1] = test system: allo-reactive CD4+IFNg+ T cell generation; experiment: mixed lymphocyte reaction (GVHD in vitro validation model), flow cytometry; assay type: cell-based, mouse; details: for Amount of generation (%) of CD4+IFNg+ T cells: BALB/c irradiated splenocytes + C57BL6/J CD4+ T cells, 5 days, positive control 37.4, syngeneic control 15.3
Excerpt: A high amount of CD4+IFNg+ T cell generated can be inferred to allow the proliferation of T cells against allogenic antigens, thereby attacking the body organs of a patient. Therefore, a graft versus host disease (GVHD) in vitro validation model was subjected to a mixed lymphocyte reaction to compare the degree of allo-reactive CD4+IFNg+ T cell generation among thiamine derivatives by flow cytometry.
Specifically, BALB/c mice were sacrificed by cervical dislocation, and then the spleens were extracted, followed by erythrocyte lysis using ACK lysing buffer. Thereafter, the isolated spleen cells were irradiated at 2500 cGy.
The positive group was treated with 10, 50, and 100 uM benfotiamine, 1, 5, and 10 uM allithiamine, and 10, 50, and 100 uM fursultiamine to prepare experimental groups.
Thereafter, the cells were cultured in RPMI1640 (10% FBS, 1% penicillin streptomycin) at 37° C. for 5 days, and the cells were separated, followed by flow cytometry, to investigate the degree of CD4+IFNg+ T cell generation.

[2] = test system: graft versus host disease (GVHD) model mice
Excerpt: Referring to FIG. 2A, 5-week-old BALB/c male mice were acclimatized for 1 week, irradiated with 800 cGy radiation throughout the body, and then injected with 5×10^6 C57BL/6J-derived bone marrow cells and 1×10^7 splenocytes derived therefrom via IV injection, thereby constructing a GVHD in vivo model (positive control group, Positive). The syngeneic control group (Syngeneic) was constructed in the same manner as above while BALB/c-derived bone marrow cells were selected as the bone marrow cells to be injected.
The fursultiamine administration group (Fur50) was constructed by daily oral gavage of fursultiamine HCl at 50 mg/kg to the GVHD in vivo model.
The treatment effect of fursultiamine was investigated on the constructed experimental groups by measuring the change in weight every 3 days.
On Day 14, the comparison between the amounts of generation of CD4+ T cells and CD4+IFNg+ T cells, which are major factors causing GVHD, was performed in the spleens isolated from the mice.
On Day 14 of inducing the GVHD in vivo model, liver and large intestine tissues were extracted from the mice, fixed in 4% paraformaldehyde for 48 hours, and then embedded in paraffin. The resultant tissues were sliced into 5 μm sections and then subjected to hematoxylin and eosin (H&E) staining. (bar=100 um)

[3] = spleen, Day 14, 50 mg/kg daily oral, in words

`CC(=C(CCO)SSCC1CCCO1)N(C=O)Cc1cnc(C)nc1N` (stereo in doubt) [Fursultiamine, fursultiamine] was tested, and the “Amount of generation (%) of CD4+IFNg+ T cells” value ([1]; 10 μM) was 34.9%, the “Amount of generation (%) of CD4+IFNg+ T cells” value ([1]; 50 μM) was 13.6% and the “Amount of generation (%) of CD4+IFNg+ T cells” value ([1]; 100 μM) was 12.5%. The “degree of generation of CD4+IFNg+ T cells compared with the positive control” value (“degree … compared with the positive control” for short) ([1]; at 50 uM or more, concentration dependent) was “significant reduction”, the “infiltration of immune cells in the liver tissue (H&E staining)” value ([2]; Day 14, 50 mg/kg daily oral, versus positive control group) was “reduced” and the “degree of infiltration of inflammatory cells into the liver and colon” value ([2]; GVHD-induced mouse model, summary statement) was “reducing the degree of infiltration”. For the same compound, the “change in weight compared with the GVHD in vivo model” value ([2]; fursultiamine HCl 50 mg/kg daily oral gavage, Day 12 of oral administration) was “significant recovery”, the “amount of generation of allogenic CD4+ T cells” value [2, 3] was “reduced” and the “amount of generation of allogenic CD4+IFNg+ T cells” value [2, 3] was “reduced”. For the same compound, the “Amount of generation of CD4+IFNg+ T cells (%)” value ([2]; spleen, Day 14, fursultiamine HCl 50 mg/kg daily oral gavage, positive control 18.3, syngeneic control 3.2) was 12.6% and the “Amount of generation of CD4+ T cells (%)” value ([2]; spleen, Day 14, fursultiamine HCl 50 mg/kg daily oral gavage, positive control 21.1, syngeneic control 6.9) was 13.4%.

`C=CCSS/C(CCO)=C(/C)N(C=O)Cc1cnc(C)nc1N` [Allithiamine, allithiamine] was tested, and the “Amount of generation (%) of CD4+IFNg+ T cells” value ([1]; 1 μM) was 35.2%, the “Amount of generation (%) of CD4+IFNg+ T cells” value ([1]; 5 μM) was 25.7% and the “Amount of generation (%) of CD4+IFNg+ T cells” value ([1]; 10 μM) was 23.9%. The “degree … compared with the positive control” value ([1]; at 5 uM or more, concentration dependent) was “significant reduction”.

With `C/C(=C(\CCOP(=O)(O)O)SC(=O)c1ccccc1)N(C=O)Cc1cnc(C)nc1N` [Benfotiamine, benfotiamine] the “Amount of generation (%) of CD4+IFNg+ T cells” value ([1]; 10 μM) was 36.8%, the “Amount of generation (%) of CD4+IFNg+ T cells” value ([1]; 50 μM) was 43.9% and the “Amount of generation (%) of CD4+IFNg+ T cells” value ([1]; 100 μM) was 40.1%. For the same compound, the “degree … compared with the positive control” value ([1]; regardless of the concentration (10, 50, 100 uM)) was “no significant difference”.
